Test results from patent US10308636B2, “Aromatic heterocyclic compound” (MITSUBISHI TANABE PHARMA CORPORATION, priority 2012, dated 2019).

Experiments:
Male C57BL/6J mice = test: Food intake-suppressing action (high fat diet); type: in vivo, mouse; conditions: 5 mg/kg oral, fasted C57BL/6J mice, food intake for 4 hours, relative to solvent control
Method: Male C57BL/6J mice, 7 to 10 weeks old, were fasted overnight, and a test compound was suspended in 0.2% carboxymethylcellulose solution and the suspension was orally administered. Immediately, the animals were given high fat diet (Oriental Yeast, 60 cal % fat) and allowed to take freely. The food intake for 4 hours was determined, and the decrease ratio of the food intake (food intake-suppressing ratio) was calculated in the test compound administrating group, relative to the food intake in the solvent control group as a control.

Male ICR mice = test: Triglyceride (TG) elevation-suppressing action in plasma by lipid administration; type: in vivo, mouse; conditions: 5 mg/kg oral, fasted ICR mice, lipid (Intralipos 20%, 10 mL/kg) 30 minutes after compound, plasma TG 2 hours after lipid, relative to solvent control
Method: Male ICR mice, 6 to 9 weeks old, were fasted overnight, and a test compound was suspended in 0.2% carboxymethylcellulose solution and the suspension was orally administered. After 30 minutes, lipid (Intralipos, 20%, Otsuka Pharmaceutical, 10 mL/kg) was orally administered. Blood was sampled through the caudal vein immediately before and 2 hours after the administration of the lipid to obtain plasma. TG in the plasma was determined by using Triglyceride E-Test Wako (Wako Pure Chemical), and the elevation value of TG in the plasma by the lipid administration was calculated. By using the plasma TG elevation value in the solvent control group as the control, the plasma TG elevation-suppressing ratio was calculated in the test compound administrating group.

Male KK-Ay mice = test: Body weight gain-suppressing, hypoglycemic and plasma insulin-decreasing action in KK-Ay mouse; type: in vivo; conditions: 30 mg/kg/day oral once a day for 2 weeks, KK-Ay mice on high fat diet; for Hypoglycemic action (30 mg/kg/day): blood sugar after overnight fast; for Hypoglycemic action (30 mg/kg/day) / Plasma insulin-decreasing action (30 mg/kg/day): relative to solvent control; for Plasma insulin-decreasing action (30 mg/kg/day): plasma insulin after overnight fast; for Body weight gain-suppressing action (30 mg/kg/day): relative to body weight gain of solvent control as 100%
Method: Male KK-Ay mice, 8 weeks old, were given high fat diet (Oriental Yeast, 60 cal % fat), the test compound was suspended in 0.2% carboxymethylcellulose solution and the suspension was orally administered once a day. After the oral administration was repeated for 2 weeks, the body weight gain-suppressing ratio of the test compound was calculated, relative to the body weight gain of the solvent control group during the test period as 100%. After the final administration, the animals were fasted overnight, and blood was sampled through the caudal vein. The blood sugar and the insulin in the plasma were determined by using Glucose C II-Test Wako (Wako Pure Chemical) and Mouse Insulin Measurement Kit (Morinaga Institute of Biological Science), respectively.

## CC(C)(COc1ccc(-c2ccc(-c3ncc(CCOc4ccccc4)[nH]3)cn2)cc1)C(=O)O [Example 1-58]
Male C57BL/6J mice
  Food intake-suppressing ratio (5 mg/kg): 68%
Male ICR mice
  Plasma TG elevation suppressing ratio (5 mg/kg): 66%

## COC(=O)C(C)(C)COc1ccc(-c2ccc(-c3nc(-c4noc(C)n4)cn3COCC[Si](C)(C)C)cn2)cc1 [Example 7]
Male KK-Ay mice
  Hypoglycemic action (30 mg/kg/day): 42%
  Plasma insulin-decreasing action (30 mg/kg/day): 34%
  Body weight gain-suppressing action (30 mg/kg/day): 34%

## CC(C)(COc1ccc(-c2ccc(-c3nc(COCc4ccccc4)c[nH]3)cn2)cc1)C(=O)O [Example 10]
Male KK-Ay mice
  Hypoglycemic action (30 mg/kg/day): 37%
  Plasma insulin-decreasing action (30 mg/kg/day): 40%
  Body weight gain-suppressing action (30 mg/kg/day): 32%

## CCOCc1nc(-c2ccc(-c3ccc(OCC(C)(C)C(=O)O)cc3)nc2)[nH]c1Cl [Example 31-2]
Male C57BL/6J mice
  Food intake-suppressing ratio (5 mg/kg): 74%
Male ICR mice
  Plasma TG elevation suppressing ratio (5 mg/kg): 74%
Male KK-Ay mice
  Hypoglycemic action (30 mg/kg/day): 55%
  Plasma insulin-decreasing action (30 mg/kg/day): 45%
  Body weight gain-suppressing action (30 mg/kg/day): 41%

## Cc1cc(OCC(C)(C)C(=O)O)ncc1-c1ccc(-c2nc(C#N)c[nH]2)cc1 [Example 32-2]
Male C57BL/6J mice
  Food intake-suppressing ratio (5 mg/kg): 65%
Male ICR mice
  Plasma TG elevation suppressing ratio (5 mg/kg): 63%

## O=C(O)Cc1ccc(C2CCN(c3ccc(-c4nc(C(F)(F)F)c[nH]4)cn3)CC2)cc1 [Example 43-2]
Male C57BL/6J mice
  Food intake-suppressing ratio (5 mg/kg): 82%
Male ICR mice
  Plasma TG elevation suppressing ratio (5 mg/kg): 66%

## Nc1nnc(-c2ccc(Br)cc2)o1 [Example 61]
Male KK-Ay mice
  Hypoglycemic action (30 mg/kg/day): 44%
  Plasma insulin-decreasing action (30 mg/kg/day): 50%
  Body weight gain-suppressing action (30 mg/kg/day): 36%

## CCOc1nc(-c2ccc(-c3ccc(O[C@H]4CC[C@@H](C(=O)OCC)CC4)nc3)cc2)nn1COCC[Si](C)(C)C [Example 67]
Male KK-Ay mice
  Hypoglycemic action (30 mg/kg/day): 47%
  Plasma insulin-decreasing action (30 mg/kg/day): 14%
  Body weight gain-suppressing action (30 mg/kg/day): 43%

## COC(=O)C(C)(C)COc1ccc(-c2ccc(-c3nc(OCC(F)(F)C(F)(F)F)n(COCC[Si](C)(C)C)n3)cc2)cn1 [Example 74]
Male KK-Ay mice
  Hypoglycemic action (30 mg/kg/day): 32%
  Plasma insulin-decreasing action (30 mg/kg/day): 29%
  Body weight gain-suppressing action (30 mg/kg/day): 41%

## NC(=O)c1ccc(Br)cc1F [Example 78]
Male KK-Ay mice
  Hypoglycemic action (30 mg/kg/day): 57%
  Plasma insulin-decreasing action (30 mg/kg/day): 69%
  Body weight gain-suppressing action (30 mg/kg/day): 56%

## COc1ccc(-c2n[nH]c(-c3ccc(-c4ccc(OCC(C)(C)C(=O)O)nc4)cc3)n2)cc1 [Example 110]
Male C57BL/6J mice
  Food intake-suppressing ratio (5 mg/kg): 68%
Male ICR mice
  Plasma TG elevation suppressing ratio (5 mg/kg): 73.0%
